Like-named read-outs stand apart in the source and are kept apart here.
Experiments:
TREK-1 [1] = target: T1, TREK-1 (Mus musculus, UniProt P97438); test: Antagonist compound examples, modulation of TREK-1 (current inhibition), Table 5; type: cell-based, Murine
T1 construct: expressed in transfected cells
T1 sequence (P97438 1-411 isoform P97438-2): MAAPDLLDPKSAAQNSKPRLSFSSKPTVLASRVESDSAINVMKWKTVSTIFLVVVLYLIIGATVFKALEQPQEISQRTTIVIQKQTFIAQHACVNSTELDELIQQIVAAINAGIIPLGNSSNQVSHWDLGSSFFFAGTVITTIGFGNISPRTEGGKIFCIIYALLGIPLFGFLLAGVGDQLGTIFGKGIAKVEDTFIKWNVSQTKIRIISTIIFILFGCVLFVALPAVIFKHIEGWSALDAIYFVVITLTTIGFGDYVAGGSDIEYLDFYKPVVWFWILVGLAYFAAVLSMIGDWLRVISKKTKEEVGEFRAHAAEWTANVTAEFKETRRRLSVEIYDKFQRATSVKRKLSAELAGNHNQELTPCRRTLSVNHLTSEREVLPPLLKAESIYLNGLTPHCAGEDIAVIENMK
Method: (§1) Two-electrode voltage clamp recordings were performed from defolliculated stage V-VI Xenopus oocytes 24-48 hours after injection with 0.015-6.0 ng cRNA, using microelectrodes (0.3-3.0 MΩ) filled with 3M KCl. Data was acquired using the GeneClamp 500B (MDS Analytical Technologies) amplifier controlled by the pClamp software (Molecular Devices), and digitized at 1 kHz using Digidata 1332A (MDS Analytical Technologies). Recording solutions (mM): 2K (96 NaCl, 2 KCl, 1.8 CaCl2, 2 MgCl2), 90K (90 KCl, 8 NaCl, 1.8 CaCl2, 2 MgCl2), were buffered 5 mM HEPES pH 7.4. For K2P recordings, currents we elicited by a 1 second long ramp from −150 to +50 mV from a holding potential of −80 mV (2K), or −100 to +50 mV from a holding potential of 0 mV (90K). For KCNQ2 recordings, currents were elicited by a step protocol from −120 to 60 mV, in 20 mV increments, from a holding potential of −80 mV. Patch-clamp recordings from HEK-293T cells were performed using microelectrodes (2-3 MΩ) filled with 1M KCl. Data was acquired using the Axopatch 200B amplifier controlled by pClamp software, and digitized at 1 kHz using Digidata 1332A. Recording solutions (mM): intracellular (145 KCl, 5 EGTA, 3 MgCl2,) extracellular (150 NaCl, 5 KCl, 3 MgCl2, 1 CaCl2) were buffered with 5 mM HEPES pH 7.2 and 7.4, respectively. Currents were elicited by a 1 second long ramp from −150 to +50 mV from a holding potential of −80 mV. Data were fitted with a modified Hill's equation: I=Imin+(Imax−Imin)/(1+10^((Log EC50−Log [C])*H)), where Imax and Imin are maximal and minimal current values, respectively, EC50 is a half-maximal effective concentration of the compound, and H is the Hill coefficient.

K2P2.1 (TREK-1) [2] = target: T2, K2P2.1 (TREK-1) (Mus musculus, UniProt P97438); test: Two-electrode voltage clamp of Xenopus oocytes expressing K2P2.1 (TREK-1); type: cell-based, Murine; conditions: two-electrode voltage clamp, Xenopus oocytes
T2 construct: expressed in transfected cells; host or cells: Xenopus oocytes (cRNA injection, pGEMHE/pMO)
T2 sequence (P97438 1-411 isoform P97438-2): T1 sequence (P97438 1-411 isoform P97438-2)
Method: (§2) Two-electrode voltage clamp recordings were performed from defolliculated stage V-VI Xenopus oocytes 24-48 hours after injection with 0.015-6.0 ng cRNA, using microelectrodes (0.3-3.0 MΩ) filled with 3M KCl. […] Recording solutions (mM): 2K (96 NaCl, 2 KCl, 1.8 CaCl2, 2 MgCl2), 90K (90 KCl, 8 NaCl, 1.8 CaCl2, 2 MgCl2), were buffered 5 mM HEPES pH 7.4. For K2P recordings, currents we elicited by a 1 second long ramp from −150 to +50 mV from a holding potential of −80 mV (2K), or −100 to +50 mV from a holding potential of 0 mV (90K). For KCNQ2 recordings, currents were elicited by a step protocol from −120 to 60 mV, in 20 mV increments, from a holding potential of −80 mV. […] Currents were elicited by a 1 second long ramp from −150 to +50 mV from a holding potential of −80 mV.

Solubility (remarks) = type: physicochemical
K2P2.1 (TREK-1) [3] = target: T3, K2P2.1 (TREK-1) (Homo sapiens, UniProt O95069); conditions: cited from earlier work
T3 sequence (O95069 1-426): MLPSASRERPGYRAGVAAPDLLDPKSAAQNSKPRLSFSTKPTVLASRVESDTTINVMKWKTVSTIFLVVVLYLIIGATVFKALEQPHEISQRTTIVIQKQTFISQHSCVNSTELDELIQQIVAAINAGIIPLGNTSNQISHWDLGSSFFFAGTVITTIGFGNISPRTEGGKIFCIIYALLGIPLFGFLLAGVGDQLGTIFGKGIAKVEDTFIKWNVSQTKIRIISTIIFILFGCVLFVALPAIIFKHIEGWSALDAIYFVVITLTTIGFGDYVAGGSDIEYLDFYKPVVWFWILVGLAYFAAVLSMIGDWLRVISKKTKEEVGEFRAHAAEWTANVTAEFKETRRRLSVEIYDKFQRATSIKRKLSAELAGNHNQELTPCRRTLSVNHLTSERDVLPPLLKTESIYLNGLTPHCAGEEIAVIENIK

K2P10.1 (TREK-2) = target: T4, K2P10.1 (TREK-2) (Mus musculus, UniProt Q8BUW1); test: Two-electrode voltage clamp, Xenopus oocytes expressing K2P10.1 (TREK-2); type: cell-based, Murine
T4 construct: expressed in transfected cells; host or cells: Xenopus oocytes
T4 sequence (Q8BUW1 1-535): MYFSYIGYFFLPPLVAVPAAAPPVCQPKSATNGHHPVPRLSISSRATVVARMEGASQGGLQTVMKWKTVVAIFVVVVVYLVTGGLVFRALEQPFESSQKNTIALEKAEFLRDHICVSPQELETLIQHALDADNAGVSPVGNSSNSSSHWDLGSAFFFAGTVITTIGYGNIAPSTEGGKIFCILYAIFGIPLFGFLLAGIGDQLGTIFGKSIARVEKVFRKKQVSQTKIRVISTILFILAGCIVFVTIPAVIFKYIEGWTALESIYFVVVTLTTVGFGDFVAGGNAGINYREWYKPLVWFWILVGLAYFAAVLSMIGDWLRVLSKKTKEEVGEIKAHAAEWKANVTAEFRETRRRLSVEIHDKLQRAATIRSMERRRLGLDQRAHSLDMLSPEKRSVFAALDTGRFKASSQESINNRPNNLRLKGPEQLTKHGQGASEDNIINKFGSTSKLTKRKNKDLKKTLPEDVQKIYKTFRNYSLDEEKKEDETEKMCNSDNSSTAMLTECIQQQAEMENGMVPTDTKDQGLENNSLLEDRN
Method: (§3) FIG. 7 ML67-33 is a selective activator of heat- and mechanosensitive K2P channels. a-f, Exemplar I-V curves showing the effect of ML67-33 on a, K2P10.1 (TREK-2), b, K2P4.1 (TRAAK), c, K2P3.1 (TASK-1), d, K2P9.1 (TASK-3), e, K2P5.1 (TASK-2), and f, K2P18.1 (TRESK) measured in Xenopus oocytes in 2 mM [K^+]o pH 7.4. Currents were elicited by a voltage ramp from −150 to 50 mV, from a holding potential of −80 mV. g, Quantification of the effect of ML67-33 on the indicated channels. Data (mean±s.e., n≧6, N≧2) was normalized to basal channel activity and fitted to the Hill equation. […] Error bars indicate s.e., n≧6, N≧2.
(§4) Murine K2P channels were cloned into pGEMHE/pMO {Bagriantsev, 2011}, IRES-GFP (Invitrogen), or pYES2-MET25 (high copy 2μ, URA3) {Minor, 1999} for expression in oocytes, HEK-293T cells, and yeast, respectively, using standard molecular biology procedures, and verified by DNA sequencing.
as §1
(§5) There are six K2P subgroups {Noel, 2011} (FIG. 11). […]

TREK-1 [4] = target: T1, TREK-1; test: Modulation of TREK-1 by select compounds (agonist activity), Table 3; type: cell-based, Murine; conditions: agonist activity on TREK-1
Method: as §2

Kv7.2 (KCNQ2) = target: T5, Kv7.2 (KCNQ2) (Homo sapiens, UniProt O43526); test: Two-electrode voltage clamp, Xenopus oocytes expressing Kv7.2 (KCNQ2); type: cell-based
T5 construct: expressed in transfected cells; host or cells: Xenopus oocytes
Method: FIG. 12 Exemplar I-V curves showing the effect of 100 μM ML67-33 Kv7.2 (KCNQ2) measured by two-electrode voltage clamp in Xenopus oocytes in 2 mM [K^+]o pH 7.4. Currents were elicited by a step protocol from −120 to 60 mV, in 20 mV increments, from a holding potential of −80 mV.
as §1

K2P3.1 (TASK-1) = target: T6, K2P3.1 (TASK-1) (Mus musculus, UniProt O35111); test: Two-electrode voltage clamp, Xenopus oocytes expressing K2P3.1 (TASK-1); type: cell-based, Murine
T6 construct: expressed in transfected cells; host or cells: Xenopus oocytes
Method: as §3, §4, §1, §5

[5] = 25 μM, 0 mV, read-out: inhibition at 25 μM at 0 mV

T6 sequence (O35111 whole entry): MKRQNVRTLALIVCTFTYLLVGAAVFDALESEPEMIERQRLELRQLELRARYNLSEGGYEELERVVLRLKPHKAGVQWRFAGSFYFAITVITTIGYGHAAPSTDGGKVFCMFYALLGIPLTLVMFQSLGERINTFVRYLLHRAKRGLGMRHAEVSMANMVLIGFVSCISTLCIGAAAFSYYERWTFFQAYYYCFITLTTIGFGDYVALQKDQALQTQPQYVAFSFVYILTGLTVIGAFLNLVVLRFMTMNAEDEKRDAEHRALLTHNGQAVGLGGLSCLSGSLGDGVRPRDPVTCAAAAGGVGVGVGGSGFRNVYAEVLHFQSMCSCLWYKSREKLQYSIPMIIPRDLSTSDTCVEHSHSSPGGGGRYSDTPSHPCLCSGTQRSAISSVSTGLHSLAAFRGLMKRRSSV

## Clc1ccc(-n2ncc3c(NCCc4ccccc4)ncnc32)cc1 [ML45-4, 1-(4-chlorophenyl)-N-(2-phenylethyl)-1H-pyrazolo[3,4-d]pyrimidin-4-amine]
TREK-1 [1]; [5]
  inhibition at 25 µM: 20.7%

## Cc1cccc(-n2ncc3c(NCCc4ccccc4)ncnc32)c1 [ML45, 1-(3-methylpyhenyl)-N-(2-phenylethyl)-1H-pyrazolo[3,4-d]pyrimidin-4-amine]
K2P2.1 (TREK-1) [2]
  effect on K2P2.1 (TREK-1) function / activity (in words): inhibitors
TREK-1 [1]; read-out: current inhibition at 25 μM
  inhibition at 25 µM: ~30%

## O=C(CCn1c2ccc(Cl)cc2c2cc(Cl)ccc21)NO [ML67-19, 3-(3,6-dichlorocarbazol-9-yl)-N-hydroxy-propanamide]
Solubility (remarks)
  solubility (in words): insoluble

## Cc1cccc(-n2ncc3c(NCCc4ccc(S(N)(=O)=O)cc4)ncnc32)c1 [ML45-5, 4-(2-{[1-(3-methylphenyl)-1H-pyrazolo[3,4-d]pyrimidin-4-yl]amino}ethyl)benzene-1-sulfonamide]
TREK-1 [1]; [5]
  inhibition at 25 µM: 2.7%

## Cc1ccc(-n2ncc3c(NCCc4ccccc4)ncnc32)cc1 [ML45-2, 1-(4-methylphenyl)-N-(2-phenylethyl)-1H-pyrazolo[3,4-d]pyrimidin-4-amine]
TREK-1 [1]; [5]
  inhibition at 25 µM: 25.2%

## CCCCC/C=C\C/C=C\C/C=C\C/C=C\CCCC(=O)O [arachidonic acid]
K2P2.1 (TREK-1) [3]; at 10-20 μM
  activation of K2P2.1 (TREK-1): 3-12 fold

## O=C(O)/C=C/n1c2ccc(Cl)cc2c2cc(Cl)ccc21 [ML67-16, (E)-3-(3,6-dichlorocarbazol-9-yl)prop-2-enoic acid]
Solubility (remarks)
  solubility (in words): insoluble

## O=C(O)CCn1c2ccc(Cl)cc2c2cc(Cl)ccc21 [ML67, 3-(3,6-dichlorocarbazol-9-yl)propanoic acid]
K2P10.1 (TREK-2); Xenopus oocytes, 2 mM [K+]o pH 7.4
  EC50: > 250 µM
K2P10.1 (TREK-2); at 500 μM
  Emax (fold) at 500 μM: 10.1 ± 1.1 at 500 μM fold
TREK-1 [4]
  EC50: 213 µM
K2P2.1 (TREK-1) [2]
  effect on K2P2.1 (TREK-1) function / activity (in words): activated the channel
Kv7.2 (KCNQ2); ML67-33 at 100 μM, ML67 concentration not stated
  effect on Kv7.2 (KCNQ2) (in words): no effect
Kv7.2 (KCNQ2); at 500 μM
  Emax (fold) at 500 μM: 1.8 ± 0.0 at 500 μM fold
K2P3.1 (TASK-1); ML67-33 applied at 100 μM, ML67 concentration not stated
  functional effect / activation (in words): not
K2P3.1 (TASK-1); at 500 μM
  Emax (fold) at 500 μM: 1.2 ± 0.0 at 500 μM fold

## ClC(Cl)Cl [chloroform]
K2P2.1 (TREK-1) [3]; at 1.6 mM
  activation of K2P2.1 (TREK-1): 5.5 fold

## Cc1ccc(-n2ncc3c(NCCc4ccccc4)ncnc32)cc1C [ML45-3, 1-(3,4-dimethylphenyl)-N-(2-phenylethyl)-1H-pyrazolo[3,4-d]pyrimidin-4-amine]
TREK-1 [1]; [5]
  inhibition at 25 µM: 31.9%

## c1ccc(CCNc2ncnc3c2cnn3-c2ccccc2)cc1 [ML45-1, 1-phenyl-N-(2-phenylethyl)-1H-pyrazolo[3,4-d]pyrimidin-4-amine]
TREK-1 [1]; [5]
  inhibition at 25 µM: 22.5%

From patent US9862684B2, “Modulation of K2P channels” (The Regents of the University of California, priority 2013, dated 2018)
